Measurements published in patent US5486601A, “Trisazo dye, and aqueous ink composition containing the same” (priority 1993, dated 1996).
Structures can show the parent of a compound that is named as a salt. Where two headings read alike, the source gives them in different places.

Assays:
[1] = AMES test / mutagenicity as stated in general text; settings: dye intermediate
[2] = Solubility of dye (Na salt) in water; format: physicochemical
Protocol: Evaluation Method of Solubility of Dye
A Na salt (2 g) of the resulting dye was dissolved in water (10 g), and the dye solution was filtered and concentrated/dried to determine a solubility (g of dye/100 g of water) of the dye.

[3] = tested on: strain TA98; experiment: AMES test (reverse mutagenicity test), strain TA98, with and without S-9; format: cell-based; settings: TA98, with and without S9, 20 to 5000 μg/plate
Protocol: (§1) Regarding specimen solutions containing the trisazo compounds (dyes) of the present invention obtained in Examples 1 to 9 and dyes of Comparative Examples 1 to 3, respectively, the total number of the mutant colony was determined using the strain TA98. When the resulting magnification is not more than 2, it is evaluated as "negative". On the other hand, when the resulting magnification is not less than 2, it is evaluated as "positive".
(§2) In Table 1, the modification in case that no drug-metabolizing active enzyme S-9 is added is shown in the column "-" and the modification in case that a drug-metabolizing active enzyme S-9 is added is shown in the column "+".

[4] = background statement on known dyes; cited from earlier work
[5] = AMES test (reverse mutagenicity test), strain TA98, with and without S-9; format: cell-based; settings: read-out: magnification of the total number of the mutant colony to the control
Protocol: as §1, §2

[6] = Stability of tetrazonium salt; format: physicochemical
[7] = s9, TA98, with S9, 313 μg/plate
[8] = s9, TA98, with S9, 1250 μg/plate
[9] = s9, TA98, with S9, 5000 μg/plate
[10] = s9, TA98, without S9, 20 μg/plate
[11] = s9, TA98, without S9, 78 μg/plate
[12] = s9, TA98, without S9, 313 μg/plate
[13] = s9, TA98, without S9, 1250 μg/plate
[14] = s9, TA98, without S9, 5000 μg/plate

Molecule	mutagenicity [1]	Solubility Dye(g)/water (100 g) [2]	Solubility Evaluation [2]	AMES Evaluation [3]	results of AMES test [4]	fold induction ([5]; s9, TA98, with S9, 20 μg/plate)	fold induction ([5]; s9, TA98, with S9, 78 μg/plate)	fold induction [5, 7]	fold induction [5, 8]	fold induction [5, 9]	fold induction [5, 10]	fold induction [5, 11]	fold induction [5, 12]	fold induction [5, 13]	fold induction [5, 14]	stability of tetrazonium salt [6]
Nc1ccc(C2(c3ccc(N)cc3)CCCCC2)cc1 [1,1-bis(4-aminophenyl)cyclohexane]	negative															
Nc1ccc(N=Nc2ccc(N=Nc3c(S(=O)(=O)[O-])cc4cc(S(=O)(=O)[O-])c(N=Nc5ccc(N=Nc6ccc(N)cc6N)cc5)c(O)c4c3N)cc2)c(N)c1.[Na+].[Na+] [Comparative Example 1, C.I. Direct Black 19, reference compound]		20 g of dye/100 g of water	.circleincircle. (solubility is not less than 15)	Positive (when the resulting magnification is not less than 2, it is evaluated as "positive")	false positive or positive											
Cc1cc(-c2ccc(N=Nc3c(S(=O)(=O)[O-])cc4cc(S(=O)(=O)[O-])c(N=Nc5ccccc5)c(O)c4c3N)c(C)c2)ccc1N=Nc1ccc(N)cc1N.[Na+].[Na+] [Comparative Example 2, C.I. Direct Black 154, reference compound]		20 g of dye/100 g of water	.circleincircle. (solubility is not less than 15)	Positive (when the resulting magnification is not less than 2, it is evaluated as "positive")	false positive or positive											
CCCCc1ccc(N=Nc2c(S(=O)(=O)O)cc3cc(S(=O)(=O)O)c(N=Nc4ccc(C5(c6ccc(N=Nc7ccc(N)cc7O)cc6)CCCCC5)cc4)c(N)c3c2O)cc1 [Example 1]		12 g of dye/100 g of water	.smallcircle. (solubility is within a range from 10 to 15)	Negative (When the resulting magnification is not more than 2, it is evaluated as "negative")		1.21	1.03	0.9	0.63	0.69	0.91	0.86	0.91	0.95	0.5	
CCCCc1ccc(N=Nc2c(S(=O)(=O)O)cc3cc(S(=O)(=O)O)c(N=Nc4ccc(C5(c6ccc(N=Nc7ccc(O)cc7O)cc6)CCCCC5)cc4)c(N)c3c2O)cc1 [Example 2]		15 g of dye/100 g of water	.circleincircle. (solubility is not less than 15)	Negative (When the resulting magnification is not more than 2, it is evaluated as "negative")		1.09	1.09	0.55	0.55	0.42	0.78	0.7	0.61	0.39	0.3	
CCC(C)c1ccc(N=Nc2c(S(=O)(=O)O)cc3cc(S(=O)(=O)O)c(N=Nc4ccc(C5(c6ccc(N=Nc7ccc(N)cc7O)cc6)CCCCC5)cc4)c(N)c3c2O)cc1 (stereo not shown) [Example 3]		12 g of dye/100 g of water	.smallcircle. (solubility is within a range from 10 to 15)	Negative (When the resulting magnification is not more than 2, it is evaluated as "negative")		0.81	1.31	1	0.56	0.69	0.81	0.5	0.5	0.5	0.69	
Nc1ccc(N=Nc2ccc(C3(c4ccc(N=Nc5c(S(=O)(=O)O)cc6cc(S(=O)(=O)O)c(N=Nc7ccccc7)c(O)c6c5N)cc4)CCCCC3)cc2)c(O)c1 [Example 4]		15 g of dye/100 g of water	.circleincircle. (solubility is not less than 15)	Negative (When the resulting magnification is not more than 2, it is evaluated as "negative")		1.44	1.4	1.08	1.16	0.96	1	0.93	1.07	0.87	0.93	
CC(C)c1ccc(N=Nc2c(S(=O)(=O)O)cc3cc(S(=O)(=O)O)c(N=Nc4ccc(C5(c6ccc(N=Nc7ccc(N)cc7O)cc6)CCCCC5)cc4)c(N)c3c2O)cc1 [Example 5]		13 g of dye/100 g of water	.smallcircle. (solubility is within a range from 10 to 15)	Negative (When the resulting magnification is not more than 2, it is evaluated as "negative")		1.77	1.27	1.41	1.45	1.05	0.9	0.76	1.07	0.83	0.48	
Cc1ccc(N=Nc2c(S(=O)(=O)O)cc3cc(S(=O)(=O)O)c(N=Nc4ccc(C5(c6ccc(N=Nc7ccc(N)cc7O)cc6)CCCCC5)cc4)c(N)c3c2O)cc1 [Example 6]		15 g of dye/100 g of water	.circleincircle. (solubility is not less than 15)	Negative (When the resulting magnification is not more than 2, it is evaluated as "negative")		1.38	1.43	0.95	0.68	0.65	1.19	1.22	1.48	1.3	1.15	
CCCCc1ccc(N=Nc2c(S(=O)(=O)O)cc3cc(S(=O)(=O)O)c(N=Nc4ccc(C5(c6ccc(N=Nc7ccc(N(CC)CC)cc7C)cc6)CCCCC5)cc4)c(N)c3c2O)cc1 [Example 7]		12 g of dye/100 g of water	.smallcircle. (solubility is within a range from 10 to 15)	Negative (When the resulting magnification is not more than 2, it is evaluated as "negative")		1.03	0.92	0.81	1.08	1.03	1.05	1.1	0.9	0.62	1.1	
CCCCc1ccc(N=Nc2c(S(=O)(=O)O)cc3cc(S(=O)(=O)O)c(N=Nc4ccc(C5(c6ccc(N=Nc7ccc(N(C)C)cc7C(=O)O)cc6)CCCCC5)cc4)c(N)c3c2O)cc1 [Example 8]		15 g of dye/100 g of water	.circleincircle. (solubility is not less than 15)	Negative (When the resulting magnification is not more than 2, it is evaluated as "negative")		1.13	0.94	1.06	0.53	0.59	0.76	0.86	0.86	0.76	0.71	
CCCCc1ccc(N=Nc2c(S(=O)(=O)O)cc3cc(S(=O)(=O)O)c(N=Nc4ccc(C5(c6ccc(N=Nc7ccc(N(C)C)cc7O)cc6)CCCCC5)cc4)c(N)c3c2O)cc1 [Example 9]		12 g of dye/100 g of water	.smallcircle. (solubility is within a range from 10 to 15)	Negative (When the resulting magnification is not more than 2, it is evaluated as "negative")		1.15	1.37	0.77	0.41	0.59	0.77	0.73	0.58	0.38	0.54	
N#[N+]c1ccc(C2(c3ccc([N+]#N)cc3)CCCCC2)cc1 [tetrazonium salt, tetrazonium salt of 1,1-bis(4-aminophenyl)cyclohexane]																comparatively stable
C.I. Direct Black 168 [Comparative Example 3, reference compound]		20 g of dye/100 g of water	.circleincircle. (solubility is not less than 15)		false positive or positive											
